System: Hs578T multi-cell spheroids, viability
Test: Anticancer human tumor Hs578T cell line growth inhibition [IpAb];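 further: drug exposure lasted 7 days before readout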
Conditions: for IC50: curve of first compound; for viability, T/C: stronger effect = lower value
Excerpt: Combinatorial screen of targeted agents with ipatasertib and abemaciclib in multi-cell type tumor spheroids
A high-throughput screen of multi-cell type tumor spheroids was designed to identify active combinations of targeted small molecules and ipatasertib or abemaciclib. Complex spheroids include a stromal component modeled by human endothelial cells (HUVEC) and fibroblasts modeled by human mesenchymal stem cells (MSCs). The concentration ranges selected for each drug and investigational agent were based upon clinically achievable concentrations if the clinical Cmax of the agent was known.
Compounds. The drugs and investigational agents: ipatasertib (NSC767898), abemaciclib(NSC768073), selumetinib (NSC741078), trametinib (758246), adavosertib (NSC754352), everolimus (NSC733504), sapanisertib (NSC764658), vemurafenib (NSC761431), venetoclax (NSC766270), copanlisib (NSC809693), apelisib (NSC765974), palbociblib (NSC758247), vemurafenib (NSC761431), dabrafenib (NSC764134), ravoxertinib (NSC781343), BMS-387032 (NSC767048), sotorasib (NSC818433), talazoparib (NSC767125) and afursertib (NSC778305), were obtained from the National Cancer Institute (NCI) Developmental Therapeutics Program Chemical Repository. The FDA-approved anticancer drug set is available from the NCI Developmental Therapeutics Program. […] The stock solutions were prepared in dimethyl sulfoxide (DMSO, Sigma-Aldrich, St. Louis, MO, cat. D2650) at 800-fold the tested concentration and stored at -70 degrees C prior to their use. All drugs and investigational agents were tested over a range starting from a high concentration at or near the clinical Cmax and decreasing in half-log increments. If the clinical Cmax for an agent had not been determined, the highest concentration tested was 10 microM.
NCI60 Cell Culture. NCI60 cell lines were obtained from the NCI Developmental Therapeutics Program Tumor Repository. For each lot of cells, the Repository performed Applied Biosystems AmpFLSTR Identifiler testing with PCR amplification to confirm consistency with the published Identifier STR profile for each cell line. Cells were kept in continuous culture for no more than 20 passages. The optimal seeding densities for each of the cell lines at each time point assessed were determined prior to performing the concentration response studies. Briefly, the NCI60 human tumor lines were grown as monolayers in RPMI 1640 medium supplemented with 10% FBS and 2 mmol/L L-glutamine.
An additional 9 lines were from the NCI60 cell line panel including MDA-MB-231 breast carcinoma, MDA-MB-468 breast carcinoma, MCF7 breast carcinoma, Hs578T breast carcinoma, MALME-3M melanoma, SK-MEL-2 melanoma, SK-OV-3 ovarian carcinoma, DU-145 prostate carcinoma, PC-3 prostate carcinoma, all cell lines along with major genetic alterations are listed on Table 2. Pooled donor human umbilical vein endothelial cells (HUVEC, Lonza, cat. CC-2519) and human mesenchymal stem cells (hMSC, Lonza, cat. PT-2501) were purchased from Lonza (Walkersville, MD).
PDMR cell lines were grown in complete medium (DC medium): Dulbecco's modified Eagle's medium (DMEM)/F12 supplemented with 5% fetal bovine serum (FBS), 2 mM L-glutamine, 100 U/mL penicillin and 100 µg/ml streptomycin, 0.4 µg/ml hydrocortisone, 10 ng/ml epidermal growth factor (EGF) recombinant human protein, 24 µg/mL adenine, and 0.1 mg/mL primocin. During culture from frozen stock vials, PDMR cells were cultured in the same medium containing 10 µM Y-27632 (see Table 3). The PDCs were cultured in complete DMEM/F12 media without 10 microM Y-27632 dihydrochloride for at least two passages prior to the screen. The pooled donor HUVEC and hMSC were cultured in endothelial cell growth medium 2 (PromoCell, Heidelberg, Germany, cat. C-22011) and mesenchymal stem cell growth medium 2 (PromoCell, cat. C-28009), respectively. For all experiments, HUVEC and hMSC were used at passages </=5.
[…]

[1] = second compound 0.1 µM, first compound 0.0316 µM
[2] = second compound 0.1 µM, first compound 0.1 µM
[3] = second compound 0.1 µM, first compound 0.316 µM
[4] = second compound 0.1 µM, first compound 1 µM
[5] = second compound 0.1 µM, first compound 3.16 µM
[6] = second compound 0.1 µM, first compound 10 µM
[7] = second compound 0.316 µM, first compound 0.0316 µM
[8] = second compound 0.316 µM, first compound 0.1 µM
[9] = second compound 0.316 µM, first compound 0.316 µM
[10] = second compound 0.316 µM, first compound 1 µM
[11] = second compound 0.316 µM, first compound 3.16 µM
[12] = second compound 0.316 µM, first compound 10 µM
[13] = second compound 1 µM, first compound 0.0316 µM
[14] = second compound 1 µM, first compound 0.1 µM
[15] = second compound 1 µM, first compound 0.316 µM
[16] = second compound 1 µM, first compound 1 µM
[17] = second compound 1 µM, first compound 3.16 µM
[18] = second compound 1 µM, first compound 10 µM
[19] = second compound 3.16 µM, first compound 0.0316 µM
[20] = second compound 3.16 µM, first compound 0.1 µM
[21] = second compound 3.16 µM, first compound 0.316 µM
[22] = second compound 3.16 µM, first compound 1 µM
[23] = second compound 3.16 µM, first compound 3.16 µM
[24] = second compound 3.16 µM, first compound 10 µM
[25] = second compound 10 µM, first compound 0.0316 µM
[26] = second compound 10 µM, first compound 0.1 µM
[27] = second compound 10 µM, first compound 0.316 µM
[28] = second compound 10 µM, first compound 1 µM
[29] = second compound 10 µM, first compound 3.16 µM
[30] = second compound 10 µM, first compound 10 µM

Structure (SMILES)	IC50 (second compound 0.1 µM) [nM]	IC50 (second compound 0.316 µM) [nM]	IC50 (second compound 1 µM) [nM]	IC50 (second compound 3.16 µM) [nM]	IC50 (second compound 10 µM) [nM]	viability, T/C [1] [%]	viability, T/C [2] [%]	viability, T/C [3] [%]	viability, T/C [4] [%]	viability, T/C [5] [%]	viability, T/C [6] [%]	viability, T/C [7] [%]	viability, T/C [8] [%]	viability, T/C [9] [%]	viability, T/C [13] [%]	viability, T/C [14] [%]	viability, T/C [19] [%]	viability, T/C [20] [%]	viability, T/C [25] [%]	viability, T/C [26] [%]	also measured
C=CCn1c(=O)c2cnc(Nc3ccc(N4CCN(C)CC4)cc3)nc2n1-c1cccc(C(C)(C)O)n1 + CC(C)NCC(C(=O)N1CCN(c2ncnc3c2C(C)CC3O)CC1)c1ccc(Cl)cc1	280	221	129	39.4	< 31.6	103	74.2	49.4	26.9	20.5	19.2	74.1	62.9	44.3	64.9	54.7	51.2	44.4	49.2	37.2	viability, T/C [10]: 27.6%; viability, T/C [11]: 22.8%; viability, T/C [12]: 16.7%; viability, T/C [15]: 35.7%; viability, T/C [16]: 25.7%; viability, T/C [17]: 25.8%; viability, T/C [18]: 17.6%; viability, T/C [21]: 29.1%; viability, T/C [22]: 23.7%; viability, T/C [23]: 20.5%; viability, T/C [24]: 11.9%; viability, T/C [27]: 22.6%; viability, T/C [28]: 21%; viability, T/C [29]: 16.3%; viability, T/C [30]: 5.72%
CC(C)n1nc(-c2ccc3oc(N)nc3c2)c2c(N)ncnc21 + CC(C)NCC(C(=O)N1CCN(c2ncnc3c2C(C)CC3O)CC1)c1ccc(Cl)cc1	5.88	3.52	1.38	< 0.316	< 0.316	19.9	15.5					14.2	11.8		14	12.2	12.2	10.4	11.4	8.97	viability, T/C (second compound 0.1 µM, first compound 0.000316 µM): 94.8%; viability, T/C (second compound 0.1 µM, first compound 0.001 µM): 86.6%; viability, T/C (second compound 0.1 µM, first compound 0.00316 µM): 63.7%; viability, T/C (second compound 0.1 µM, first compound 0.01 µM): 38.6%; viability, T/C (second compound 0.316 µM, first compound 0.000316 µM): 79.2%; viability, T/C (second compound 0.316 µM, first compound 0.001 µM): 72.4%; viability, T/C (second compound 0.316 µM, first compound 0.00316 µM): 50.8%; viability, T/C (second compound 0.316 µM, first compound 0.01 µM): 30.7%; viability, T/C (second compound 1 µM, first compound 0.000316 µM): 61.7%; viability, T/C (second compound 1 µM, first compound 0.001 µM): 55.3%; viability, T/C (second compound 1 µM, first compound 0.00316 µM): 37.2%; viability, T/C (second compound 1 µM, first compound 0.01 µM): 20.7%; viability, T/C (second compound 3.16 µM, first compound 0.000316 µM): 47.4%; viability, T/C (second compound 3.16 µM, first compound 0.001 µM): 41.4%; viability, T/C (second compound 3.16 µM, first compound 0.00316 µM): 28.4%; viability, T/C (second compound 3.16 µM, first compound 0.01 µM): 17.3%; viability, T/C (second compound 10 µM, first compound 0.000316 µM): 48.1%; viability, T/C (second compound 10 µM, first compound 0.001 µM): 35.9%; viability, T/C (second compound 10 µM, first compound 0.00316 µM): 25.4%; viability, T/C (second compound 10 µM, first compound 0.01 µM): 12%
CC1(C)CCC(CN2CCN(c3ccc(C(=O)NS(=O)(=O)c4ccc(NCC5CCOCC5)c([N+](=O)[O-])c4)c(Oc4cnc5[nH]ccc5c4)c3)CC2)=C(c2ccc(Cl)cc2)C1 + CC(C)NCC(C(=O)N1CCN(c2ncnc3c2C(C)CC3O)CC1)c1ccc(Cl)cc1	5570	5150	3840	1560	< 31.6	97.1	96.7	101	95.3	83	15.7	79.9	90.2	89.2	66.9	66.5	53.3	54.3	46.7	46.9	viability, T/C [10]: 81.9%; viability, T/C [11]: 77.1%; viability, T/C [12]: 13.5%; viability, T/C [15]: 66.4%; viability, T/C [16]: 63%; viability, T/C [17]: 58.2%; viability, T/C [18]: 11.1%; viability, T/C [21]: 51.3%; viability, T/C [22]: 53.4%; viability, T/C [23]: 45.9%; viability, T/C [24]: 10.2%; viability, T/C [27]: 46.8%; viability, T/C [28]: 42.3%; viability, T/C [29]: 40.9%; viability, T/C [30]: 5.27%
CCCS(=O)(=O)Nc1ccc(F)c(C(=O)c2c[nH]c3ncc(-c4ccc(Cl)cc4)cc23)c1F + CC(C)NCC(C(=O)N1CCN(c2ncnc3c2C(C)CC3O)CC1)c1ccc(Cl)cc1	4680	3600	3170	1350	< 31.6	97.9	95.8	92.3	89.9	71.2	9.19	94.8	83.4	88.3	69.2	71.2	56.5	57.8	48.3	45.1	viability, T/C [10]: 82.6%; viability, T/C [11]: 55.3%; viability, T/C [12]: 7.94%; viability, T/C [15]: 74.1%; viability, T/C [16]: 68.1%; viability, T/C [17]: 50.1%; viability, T/C [18]: 4.41%; viability, T/C [21]: 51%; viability, T/C [22]: 55.3%; viability, T/C [23]: 35.8%; viability, T/C [24]: 2.97%; viability, T/C [27]: 49.5%; viability, T/C [28]: 38.6%; viability, T/C [29]: 27.5%; viability, T/C [30]: 0.51%
